Experimental data taken from patent US6713276B2, “Modulation of Aβ levels by β-secretase BACE2” (Scios, Inc., priority 2000, dated 2004).

What was measured:
APP751sw = experiment: cell-free β-secretase assay, β-NTF ELISA, APP751sw substrate; assay type: biochemical, human; details: membrane extracts of transfected HEK293 cells, pH 4.5, 37° C.
Method: The β-secretase assay consists of two different parts, an incubation or reaction phase to generate β-NTF and an ELISA part to capture and measure the β-NTF generated by β-secretase. The β-secretase ELISA was performed as follows. Each well of a 96 well plate containing a flat bottom (high protein binding, Corning, N.Y.) was coated with 100 μl of the monoclonal capture antibody 8E5 (at ˜8-10 μg/ml) (Johnson-Wood et al. Proc. Natl. Acad. Sci. USA 94: 1550-1555 [1997]). The plate was then covered with parafilm and incubated overnight at 4° C. or alternatively for 2 hours at 37° C. […]
One hundred μl of a 1:5000 dilution of a goat anti rabbit IgG-HRP in Antibody-Conjugate Buffer was then added to each well, and the plate incubated at room temperature for one hour. […] After sufficient blue color had developed, the reactions were stopped by adding 100 μl of 5N H2SO4 to each well, and the amount of βNTF was determined by reading the plate at 450 nm in a Softmax spectrophotometer.
Equal amounts of membrane extracts from either mock, BACE or BACE2 transfected HEK293 cells were incubated with partially purified full length APP751 sw or APP751wt for the indicated times. The formation of β-NTF was then determined using the respective β-NTF specific ELISA as described in General Methodology.

[1] = system: APP751sw processing in HEK293T cells; experiment: co-transfection with APP751sw in HEK293T cells, ELISA of conditioned medium; assay type: cell-based, human; details: co-transfected with APP751sw
Method: (§1) Expression vectors containing BACE and BACE2 cDNAs were transfected into HEK293T cells in the presence of APP751sw or CT100 (Shoji et al., Science 258: 126-129 [1992]; Lichtenthaler et al., Proc. Natl. Acad. Sci. USA 96: 3053-3058 [1999]). Transfections were performed in 24 well plates using Lipofectamine Plus (Gibco/BRL, Bethesda, Md.) and DNA concentrations were kept constant by including non-specific DNA. Expression plasmids were tested for BACE and BACE2 expression by Western blotting. Cell culture supernatants were collected 48 hours and 72 hours post-transfection, and assayed for α-NTF, β-NTF and Aβ formation. β-NTF measurement was performed as described below. α-NTF was captured like β-NTF but was detected with biotinylated 2H3 (Johnson-Wood et al., Proc. Nati. Acad. Sci. USA 94: 1550-1555 [1997]). Aβ levels were determined by an ELISA using monoclonal antibodies 266 for capture and biotinylated 3D6 for detection (see Johnson-Wood et al., [1997] ibid for antibody epitope description). Aβ42, in contrast, was captured using 21F 12 and detected with biotinylated 3D6. Cell extracts prepared 72 hour post-transfection were separated by SDS-PAGE (Novex) and probed with CT695 (Zymed) for APP and CTFs as well as with an Aβ specific monoclonal antibody WO2 (kindly provided by K. Beyreuther; Ida et al., J. Biol. Chem. 271: 22908-22914 [1996]). […]
Given the ability of BACE2 to cleave APP at the β-secretase site in vitro, we investigated the role of BACE2 in HEK293T cells relative to BACE. […] Cell supernatants were collected 48 hours or 72 hours post-transfection and analyzed for α-NTF, β-NTF, total Aβ and Aβ42 as described in Genenral Methodology. […]
In an independent experiment, we addressed whether BACE2 competed with the ability of BACE to cleave APP at the β-secretase site. HEK293T cells were co-transfected with constant amounts of APP751sw and BACE, and increasing levels of BACE2. β-NTF and Aβ levels were then measured in culture supernatant (FIG. 3). […]

[2] = system: APP751sw processing in HEK293T cells; experiment: pulse-chase / pulse-labeling and immunoprecipitation of APP CTFs, Aβ and p3 in HEK293T cells; assay type: cell-based, human; details: HEK293T, APP751sw, 15 min pulse, chase up to 90 minutes
Method: Forty eight hours post-transfection, HEK293T cells were labeled for 15 minutes with 200 μCi Promix L [^35S] in vitro cell labeling mix (Amersham) and chased for up to 90 minutes according to standard procedures. APP CTFs were immunoprecipitated with antibodies 369 (Cai et al., Science 259: 514-516 [1993]). For immunoprecipitations of Aβ and p3 from conditioned medium, HEK293T cells were labeled for 5 hours with 300 μCi Promix L [^35S] in vitro cell labeling mix (Amersham) 48 hours post-transfection. Aβ40 and Aβ42 as well as the corresponding p3 species were immunoprecipitated with monoclonal antibodies 1702.1 and 108.1, respectively (Higaki et al., J. Med. Chem. 42: 3889-3898 [1999]).
To analyze the metabolism of APP as a consequence of BACE or BACE2 overexpression we performed a parallel pulse-chase experiment (FIG. 2e). HEK293T cells transfected as above were pulse-labeled and chased for up to 90 minutes and APP and CTFs were immunoprecipitated. […] An alternative β-secretase related cleavage product (β′-CTF) was also formed consistent with previous reports (Vassar et al., Science [1999] ibid; Higaki et al., Neuron 14: 651-659 [1995]). Consistent with its β-secretase activity, BACE2 overexpression led to a significant initial increase in β-CTF levels compared to mock-transfected cells. […] To determine whether BACE affected γ-secretase activity, we determined whether p3 could be formed. […]

[3] = system: APP751sw processing in SK-N-MC cells; experiment: co-transfection with APP751sw in SK-N-MC neuroblastoma cells, ELISA of conditioned medium; assay type: cell-based, human; details: co-transfected with APP751sw
Method: as §1, with “3D6.” for “3D6. Cell extracts prepared 72 hour post-transfection were separated by SDS-PAGE (Novex) and probed with CT695 (Zymed) for APP and CTFs as well as with an Aβ specific monoclonal antibody WO2 (kindly provided by K. Beyreuther; Ida et al., J. Biol. Chem. 271: 22908-22914 [1996]).”
We further assessed the modulatory effect of BACE2 on Aβ formation using a human neuroblastoma cell line, SK-N-MC.

[4] = system: CT100 (C-terminal 100 amino acids of APP) processing in HEK293T cells; experiment: co-transfection with CT100 in HEK293T cells, ELISA, Western blot, pulse-chase; assay type: cell-based, human; details: HEK293T, co-transfected with CT100
Method: as §1, with “3D6.” for “3D6. Cell extracts prepared 72 hour post-transfection were separated by SDS-PAGE (Novex) and probed with CT695 (Zymed) for APP and CTFs as well as with an Aβ specific monoclonal antibody WO2 (kindly provided by K. Beyreuther; Ida et al., J. Biol. Chem. 271: 22908-22914 [1996]).”
This effect prompted investigation into whether β-secretase cleavage was required for Aβ suppression. The effects of BACE2 on the metabolism of the C-terminal 100 amino acids of APP (CT100), a construct that mimics prior β-secretase cleavage (Shoji et al., Science 258: 126-129 [1992]), was analyzed. […]

## BACE: β-site APP-cleaving enzyme, membrane-bound aspartyl protease, cloned from human brain cDNAs and overexpressed
APP751sw
  β-NTF formation (β-secretase cleavage in vitro): time-dependent increase in β-NTF formation
[1]
  total Aβ in conditioned medium: Aβ production was not significantly stimulated
  α-NTF levels in conditioned medium: α-NTF levels were proportionally reduced
[1]; APP751sw alone ~2.59
  total OD of α-NTF plus β-NTF: ~2.3 OD
[2]
  APP CTF turnover (β-CTF, β′-CTF, α-CTF): accumulation of β-CTF
[3]
  Aβ in conditioned medium: very pronounced increase in both β-NTF and Aβ
  β-NTF in conditioned medium: very pronounced increase in both β-NTF and Aβ
[4]
  total Aβ and Aβ42 levels in conditioned medium: did not affect the levels of Aβ
